According to patent US11903958B2, “Therapeutic agents and methods of producing same” (GLYCOSYNNOVATIONS PTY LTD, priority 2016, dated 2024):

Assays:
recombinant human IL-13 = recombinant human IL-13 (Homo sapiens, UniProt P35225); test: TF-1 cell proliferation bioassay with rhIL-13; format: cell-based; settings: rhIL-13 4 ng/ml; inhibitor 10 μg/ml and 2.5 μg/ml; 48 hours; FIG. 1
Experimental: The various simplified sulphated glycoconjugates inhibited the proliferation of an IL-13 responsive cell line to differing degrees. This occurs at very low doses and is believed not to be due to a toxic effect of the glycoconjugates because other, similarly sulfated polysaccharides (e.g. sucrose octasulfate), at the same concentrations of IL-13 and polysaccharide have no effect. These experiments utilize the TF-1 cells that are grown in 2 ng/ml recombinant human (rh) GM-CSF. TF-1 cells were originally established from a bone marrow sample from a person with severe pancytopenia. These cells are dependent on IL-3 or GM-CSF for long term growth and are responsive to a variety of human cytokines including IL-13.
(§1) Briefly, proliferation assays were carried out in 96-well microplates suitable for such assays. […] When the effect of the different simplified sulfated glycoconjugates was measured, the wells also contained various concentrations of these molecules (10 μg/ml and 2.5 μg/ml) and the rhIL-13 concentration was held constant at 4 ng/ml. The cells proliferated for 48 hours, after which the number of cells present was quantified by staining with 20 μL per well of the CellTiter 96 Aqueous One reagent was incubated with TF1 cells for the last 3.5 to 4 hours of culture and then absorbance was read at 490 nm on an Enspire Multimode plate reader (PerkinElmer).

recombinant human IL-4 = target: T1, recombinant human IL-4 (Homo sapiens, UniProt P05112); test: TF-1 cell proliferation bioassay with rhIL-4; format: cell-based; settings: rhIL-4 4 ng/ml; inhibitor 10 μg/ml and 2.5 μg/ml; 48 hours; FIG. 3
T1 sequence (P05112 25-153): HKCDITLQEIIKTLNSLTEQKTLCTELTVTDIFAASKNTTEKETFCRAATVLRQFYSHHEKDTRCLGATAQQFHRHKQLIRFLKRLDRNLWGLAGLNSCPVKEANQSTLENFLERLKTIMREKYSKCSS
Experimental: The various simplified sulphated glyconjugates inhibited the proliferation of an IL-4 responsive cell line to differing degrees. This occurs at very low doses and is not due to a toxic effect of the glycoconjugate because other, similarly sulfated polysaccharides (sucrose octasulfate), at the same concentrations of IL-4 and polysaccharide have no effect. These experiments utilize the TF-1 cells that are grown in 2 ng/ml recombinant human (rh) GM-CSF. TF-1 cells were originally established from a bone marrow sample from a person with severe pancytopenia. These cells are dependent on IL-3 or GM-CSF for long term growth and are responsive to a variety of human cytokines including human IL-4.
as §1, with “rhIL-4” for “rhIL-13”

Sequence of recombinant human IL-13 (P35225 25-146): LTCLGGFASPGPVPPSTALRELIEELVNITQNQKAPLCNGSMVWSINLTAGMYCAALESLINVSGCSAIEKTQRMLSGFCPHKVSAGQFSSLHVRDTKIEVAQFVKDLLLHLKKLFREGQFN

## O=S(=O)(O)OC[C@H]1O[C@@](COS(=O)(=O)O)(O[C@H]2O[C@H](COS(=O)(=O)O)[C@@H](OS(=O)(=O)O)[C@H](OS(=O)(=O)O)[C@H]2OS(=O)(=O)O)[C@@H](OS(=O)(=O)O)[C@@H]1OS(=O)(=O)O [sucrose octasulfate]
Recombinant human IL-13
  inhibition of IL-13 stimulated TF-1 cell proliferation: no effect
Recombinant human IL-4
  inhibition of IL-4 stimulated TF-1 cell proliferation: no effect
